The values that follow come from US20230277573A1, “OLIGOSACCHARIDE COMPOSITIONS AND METHODS OF USE” (DSM Nutritional Products, LLC, priority 2020, published 2023).

The assay has as its system western diet (WD)-induced obese low density lipoprotein receptor knock-out (ldlr−/−) mouse model. Kind of assay: Western diet (WD)-induced obese ldlr−/− mouse model: blood, liver, aorta and body weight readouts. The assay is classed as in vivo. The conditions noted are these: WD-fed ldlr−/− mice, 16 wk, fenofibrate 100 mg/kg/day. How it is done:
The therapeutic and microbiome effects of the selected oligosaccharide composition were tested in a validated western diet (WD)-induced obese low density lipoprotein receptor knock-out (ldlr^−/−) mouse model, thought to recapitulate a number of metabolic pathologies found in humans, including obesity, hyperglycemia, glucose intolerance, hyperinsulinemia, insulin resistance, severe hypercholesterolemia, hypertriglyceridemia, atherosclerosis, hepatic steatosis and hepatic inflammation. […]
9-11 weeks old male C57BL/6J ldlr^−/− mice were split into one of four treatment groups (12 animals per group, 4 animals per cage)—(1) no treatment (NT), (2) the selected oligosaccharide (as produced by the process described in Example 2), (3) a glucose/galactose-based oligosaccharide composition and (4) fenofibrate—for 16 weeks. […] The body weight for each animal was measured prior to the treatment period and weekly over the treatment period. 4-day food intake for each cage was measured weekly over the treatment period and averaged as food intake per mouse per day. […] For each animal, separate liver sections (˜100 mg each) were collected and frozen for the quantification of hepatic TG and hepatic TC. […] The aortic arch was surface stained with oil red O for the quantification of atherosclerotic plaque surface area.

As for `CC(C)OC(=O)C(C)(C)Oc1ccc(C(=O)c2ccc(Cl)cc2)cc1` [fenofibrate, Fenofibrate], the “body weight gain lowered by, compared to NT” value is given as 44%. For the same compound, the “effect on food intake” value (OS 7.5% w/w in diet) is recorded as “no effect”.
